Results: patent US6133313A, “Insecticidal avocadofurans and triolein” (The Regents of the University of California, priority 1998, dated 2000)
“Also recorded” adds a separate entry of the source.

Legend:
[1] = tested on: S. exigua larvae; test: toxicity of furan analogs of variable side chain length in diet assay; format: in vivo, Spodoptera exigua; settings: 5 μmoles g^-1 diet
Protocol: To determine the toxicity of avocadofurans and their furan analogs, five saturated furans of variable side chain lengths, namely 2-(tetradecyl)furan compound (20), 2-(pentadecyl)furan (1), 2-(hexadecyl)furan compound (21), 2-(heptadecyl)furan (4), and 2-(octadecyl)furan compound (22) were tested for their activity against S. exigua in diet assay. Diets for treatments were prepared at a concentration known to be insecticidal against S. exigua early instar of 5 μmoles g^-1 diet. To compare toxicity among furans, concentration in μmoles g^-1 diet were adjusted according to the molecular weights of individual furans.
Five saturated furans of variable side chain lengths: 2-(tetradecyl)furan (20), 2-(pentadecyl)furan (1), 2-(hexadecyl)furan (21), 2-(heptadecyl)furan (4), and 2-(octadecyl)furan (22) were tested for activity against S. exigua in diet bioassays. Treated diets were prepared at a concentration known to be insecticidal against S. exigua early instars (5 μmoles g^-1 diet). To compare toxicity among furans, concentrations in μmoles g^-1 of diet were used to compensate for their different molecular weights.
Each furan compound was transferred into a 50-ml polypropylene centrifuge tube (Fisher, Pittsburgh Pa.), added 2 ml of 0.1% Tween-80 solution (Fisher), homogenized with an ultrasonic homogenizer (Cole-Parmer, Chicago, Ill.), and artificial diet was added to produce a final weight of 15 g. The mixture was vortexed for 3 mm. Control diet was prepared by mixing 2 ml of Tween solution with 13 g of artificial diet to produce a final weight of 15 g. Control and treated diets were poured into 16-well bioassay trays (C-D International Inc., Pitman N.J.). One neonate was added per well. Trays were placed in an incubator set for conditions described previously. Twenty-four neonates were tested for each treatment. Each treatment was replicated four times (total of 96 larvae/treatment). Larval mortality and weight were recorded after 9 days.

[2] = in words; cited from earlier work
[3] = tested on: Bacillus subtilis; settings: in words; cited from earlier work
[4] = tested on: Staphylococcus aureus; settings: in words; cited from earlier work
[5] = tested on: Bombyx mori L. larvae; settings: 4th instar, within 2 days; cited from earlier work
[6] = tested on: Colletotrichum gloeosporioides; settings: in words; cited from earlier work
[7] = tested on: S. exigua larvae; test: growth inhibition and mortality of synthetic avocadofurans and triolein in diet bioassay; format: in vivo, Spodoptera exigua; settings: for 7-d Instar / 7-d Larval Weight: mean ± SE
Protocol: S. exigua larvae were used in all experiments. Larvae were reared on artificial diet modified from U.S.D.A. Agric. Res. Serv., Prod. Res. Rep., 1208:1 (1969), and maintained at 28+2° C., 14:10; light:dark (L:D) photoperiod.
The colony was collected from Orange Co., Calif. and had new genetic material added within 12 months prior to the study. The age of the cohorts tested was standardized by using neonates within 12 hours of eclosion. All bioassays were maintained at 28+2° C. 75% relative humidity (RH), and at 14:10 (L:D) photoperiod with fluorescent lighting.
The insecticidal activity of the fractions was tested with artificial diet bioassays. Treated diets were prepared by transferring 750 μl of acetone solutions of each fraction (equivalent to 300 mg crude idioblast cell oil) into 50-ml polypropylene centrifuge tubes (Fisher, Pittsburgh Pa.), evaporating the acetone, adding 2 ml of 0.1% Tween-80 solution (Fisher), homogenizing with an ultrasonic homogenizer (Co le-Parmer, Chicago Ill.), and adding prepared diet to produce a final weight of 15 g containing the equivalent of 2% idioblast oil. The mixture was vortexed for 3 mm.
Control diet was prepared by mixing 2 ml of Tween solution and 13 g of artificial diet to produce a final weight of 15 g. Control and treated diets were poured into 24-well (15.9 mm diameter and 15.9 mm depth) bioassay trays (C-D International Inc., Pitman N.J.). One neonate was added per well, and trays were placed in an incubator under the previously described conditions. Twenty-four neonates were tested for each fraction and control. Mortality and larval weights were recorded after 7 days.
The effect of the synthetically produced avocado furan compounds (>95% purity) and commercially available triolein (Sigma, St. Louis, Mo.) were tested on larval growth and mortality of S exigua. Treated and control diet were prepared as previously described.
Six different compound concentrations, chosen on the basis of studies with the oil fractions, were evaluated for both 2-(pentadecyl)furan and 2-(heptadecyl)furan: 0 (control), 600, 750, 900, 1050, and 1200 μg/g. Also, six concentrations of triolein (subfraction 1-1-12) were tested: 0 (control), 7000, 8000, 9000, 10000, and 11000 μg/g.
Twenty-four neonates were used per treatment. Bioassays were conducted as described in Example 4, and replicated 4 times for each concentration (i.e., a total of 96 larvae were tested for each concentration). Larval weight, instar, and mortality were recorded after 7 days […].
(§1) EC (effective concentration) values were calculated by subtracting the mean larval weight for each treatment from the mean weight of the controls, and dividing by the mean weight of the controls. LC (lethal concentration) values were obtained using probit analysis as described in Probit Analysis (1971) Cambridge University Press, Cambridge, UK. GI (growth index) and RGI (relative growth index) values were calculated as described in J. Chem. Ecol., 19:1109 (1993), but using an imax of 3 (the stage attained by most control larvae after 7 d). Statistical comparisons were conducted using SuperAnova Abacus Concept Inc., Berkeley, Calif. (1989).

[8] = tested on: neonate S. exigua; test: individual toxicity of avocadofurans and triolein in artificial diet; format: in vivo, Spodoptera exigua; settings: for LC50 (95% FL): in diet
Protocol: In this study, individual activity of avocadofurans was investigated quantitatively. For this purpose, eight concentrations of the avocadofurans (1) and (4) and triolein (8) were tested. Results are seen in FIG. 6.
Following pilot studies, eight concentrations of each were tested: 0, 0.5, 1, 1.5, 2, 2.5, 3, and 3.5 μmoles g^~1 diet. Also, five concentrations of triolein were tested: 0; 1,000; 2,000; 3,000; and 4,000 μg g^~1 diet. Because triolein was not compared to a structurally similar compound, a more standard dietary formulation of μg g-^1 was used rather than ^~ moles g^-1 in all triolein-treated bioassays.
Treated and control diet were prepared as described above. For each concentration the compounds were dissolved in 10 ml of Tween solution and mixed using an ultrasonic homogenizer. Untreated diet was added to make a total of 100 g and then vortexed for 3 mm. Control diet was prepared by mixing 10 ml of the Tween solution with 90 g of artificial diet to produce a final weight of 100 g. Control and treated diets were poured into 30 ml plastic cups. One neonate was placed in each cup and cups were held in an incubator. Fifteen larvae were tested at each concentration, and assays were replicated 4 times (total of 60 larvae/treatment). For each diet treatment, 9-d larval instar and weight, pupal weights, times to pupation, and larval mortality were recorded.
as §1

[9] = tested on: S. exigua; test: synergistic/joint toxicity of avocadofuran and triolein combinations; format: in vivo, Spodoptera exigua
Source text: The treatments were as follows: Control, 2-(pentadecyl)furan, 2-(heptadecyl)furan, triolein, individually, and 2-(pentadecyl)furan combined with 2-(heptadecyl)furan and triolein, 2-(pentadecyl)furan combined with triolein, and 2-(heptadecyl)furan combined with triolein. Because the combined LC25 s for both avocadofurans exceed their LC50 values, a concentration for each was adjusted so that when added it would approximate the value of the avocadofurans LC50 (see Table 2). These concentrations were used whenever both avocadofurans were combined in the same treatment. Treatments were replicated four times, with 15 larvae per replicate to a total of 60 larvae/treatment.
Joint effects were determined by testing all combinations of LC25 s (estimated from probit lines shown in Table 1) of the three compounds for toxicity to S. exigua. The treatments were: control, 2-(pentadecyl)furan, 2-(heptadecyl)furan, triolein, 2-(pentadecyl)furan+triolein, 2-(heptadecyl)furan+triolein, and 2-(pentadecyl)furan+2-(heptadecyl)furan+triolein. Because the combined LC25 s for both avocadofurans exceeded their LC50 values (due to a steep slope of their LC lines), a concentration for each was used so that when added together it would approximate the value of the avocadofurans LC50 (Table 1). These concentrations were used whenever both avocadofurans were combined in the same treatment.
Treatments were replicated four times, with 15 larvae per replicate (total of 60 larvae/treatment). Dietary treatment preparations and bioassay procedures were conducted as described in Example 4. For each diet treatment, 9-d larval instar and weight, pupal weights, times to pupation, and larval mortality were recorded.

[10] = tested on: S. exigua larvae; test: growth inhibition and mortality of synthetic avocadofurans and triolein in diet bioassay; format: in vivo, Spodoptera exigua; settings: 3,500 μg/g
[11] = Spodoptera exigua, feed or water, 168 h

## CCCCCCCCCCCCCCc1ccco1 [2-(tetradecyl)furan]
[1]; 9 d, in words
  effect on mortality (FIG. 5A): had the lowest activity
[1]; in words
  effect on 9-day larval weight (FIG. 5B): significantly reducing larval weight compared to the control
[1]; Spodoptera exigua, feed or water, 216 h, 9 d, read-out: mortality of S. exigua larvae (FIG. 5A)
  mortality at 5 µmol/g: < 50%

## C#CCCCCCCCCCCCC(O)CC(O)CO (stereo not shown) [1,2,4-trihydroxyheptadec-16-yne]
[2]
  fungicidal / antifungal activity: antifungal activity

## C=CCCCCCCCCCCCc1ccco1 [2-(trideca-12-enyl)furan]
[3]
  growth inhibitory activity: growth inhibitory activity
[4]
  growth inhibitory activity: growth inhibitory activity

## CCCCC/C=C\C/C=C\CCCCCCCC(=O)CC(O)COC(C)=O (single isomer, unassigned) [persin, 1-acetoxy-2-hydroxy-4-oxo-heneicosa-(12Z,15Z)-diene]
[5]
  concentration at which growth inhibited: 200 µg/g
[6]
  antifungal activity: antifungal activity

## CCCCCCCCCCCCCCCCCCc1ccco1 [2-(octadecyl)furan]
[1]; in words
  effect on 9-day larval weight (FIG. 5B): comparable to the best compound described above, namely compound (1)

## C=CCCCCCCCCCCCC(O)CC(O)COC(C)=O (stereo not shown) [1-acetoxy-2,4-dihydroxy-n-heptadec-16-ene]
[2]
  fungicidal / antifungal activity: active as a fungicide

## C=CCCCCCCCCCCCC(O)CC(O)CO (stereo not shown) [1,2,4-trihydroxy-n-heptadec-16-ene]
[2]
  fungicidal / antifungal activity: antifungal activity

## C#CCCCCCCCCCCCC(O)CC(O)COC(C)=O (stereo not shown) [1-acetoxy-2,4-dihydroxyheptadec-16-yne]
[2]
  fungicidal / antifungal activity: antifungal activity

## CCCCCCCC/C=C\CCCCCCCC(=O)OCC(COC(=O)CCCCCCC/C=C\CCCCCCCC)OC(=O)CCCCCCC/C=C\CCCCCCCC [Triolein (8), triolein]
[7]; 7000 μg/g
  EC (effective concentration; weight reduction vs control): 65.43%
  GI (growth index): 0.64
  7-d Instar: 2.35 ± 0.08
  7-d Larval Weight: 10.84 ± 1.42 mg
[7]; 8000 μg/g
  EC (effective concentration; weight reduction vs control): 43.64%
  GI (growth index): 0.67
  7-d Instar: 2.70 ± 0.10
  7-d Larval Weight: 17.67 ± 2.05 mg
[7]; 9000 μg/g
  EC (effective concentration; weight reduction vs control): 84.44%
  GI (growth index): 0.39
  7-d Instar: 1.91 ± 0.08
  7-d Larval Weight: 4.88 ± 0.65 mg
[7]; 10000 μg/g
  EC (effective concentration; weight reduction vs control): 81.52%
  GI (growth index): 0.37
  7-d Instar: 1.87 ± 0.10
  7-d Larval Weight: 5.79 ± 0.96 mg
[7]; 11000 μg/g
  EC (effective concentration; weight reduction vs control): 71.85%
  GI (growth index): 0.28
  7-d Instar: 1.95 ± 0.13
  7-d Larval Weight: 8.82 ± 2.22 mg
[7]; [11]
  mortality at 7000 µg/g: 18.8%
  mortality at 8000 µg/g: 26%
  mortality at 9000 µg/g: 40.6%
  mortality at 10000 µg/g: 42.7%
  mortality at 11000 µg/g: 59.4%
[7]; in diet
  LC50 (95% FL): 10364 µg/g
[7]; in vivo
  level in artificial diet at which toxicity is exhibited: about 1%
[7]; in words
  inhibition of larval growth: significantly inhibited larval growth at relatively high concentrations
[7]; log (μg/g)
  Relative Growth Index (RGI) vs log concentration regression (FIG. 4): y=7.68-1.83*log(x), r^2 =0.86
[7]; lowest concentration, in diet
  concentration significantly reducing larval weight and development: ≥ 7000 µg/g
[8]; 2,000 μg g^-1 or higher
  reduction of 9-d larval weight (FIG. 6B): more than 35%
[8]; in words
  comparative toxic and inhibitory effect: inhibitory at concentrations much higher than either of the avocadofurans tested in this assay
  effect on larval mortality (FIG. 9): increases larval mortality
  effect on pupal weight (FIG. 7): no effect on larval developmental time and pupal weight
  larval developmental time from neonate to pupa (FIG. 8): not significantly prolonged; also recorded: no effect on larval developmental time
[8]; in words, increasing concentrations
  Relative Growth Index (RGI) (FIG. 10): decreased with increasing concentrations
[8]; lowest concentration vs controls
  concentration significantly reducing 9-d weight (FIG. 6B): ≥ 2,000 μg g^-1
[8]; triolein, larval stage
  LC25 (95% FL): 1,900(1,304-2,339) μg g^-1 of diet
[8]; triolein, larval stage, listed as Triolein
  LC50 (95% FL): 3,631(2,979-5,203) μg g^-1
[8]; triolein, larval stage, listed as triolein
  LC50 (95% FL): 3,631 μg g^-1
[9]; in vivo
  Survival to pupation: 83.3%
[9]; mean ± spread
  Weight, 9-d larvae: 111.8 ± 10.3 mg
  Weight, Pupae: 116.4 ± 3.7 mg
[9]; neonate-pupa, in d (unit assumed)
  Developmental times: 15.3 ± 0.4
[9]; single substance, at estimated LC25
  Mortality (%) using LC25: 16.7%

## CCCCCCCCCCCCC/C=C/c1ccco1 [2-(1E-pentadecenyl)furan]
[10]
  reduction of larval growth compared to controls: 57.3%
[7]; Spodoptera exigua, feed or water, 3,500 μg/g
  mortality at 3500 µg/g: 12.5%
[7]; lowest active concentration, in diet
  concentration at which S. exigua growth is inhibited / compound active: ≥ 3,500 μg/g

## CCCCCCCCCCCCCCCCc1ccco1 [2-(hexadecyl)furan]
[1]; in words
  effect on 9-day larval weight (FIG. 5B): comparable to the best compound described above, namely compound (1)
